Laboratory results reported in patent publication US12414948B2, “Methods” (INTRA-CELLULAR THERAPIES, INC., priority 2022, dated 2025).

Experiments:
[1] = test system: serum cytokines IL-1b, IL-6, TNF-alpha, IL-10; assay: Serum cytokine protein (Multiplex MSD V-Plex) after LPS and lumateperone; format: in vivo, mouse; conditions: 2 h
Protocol: All other reagents are obtained in the highest purity available from Sigma-Aldrich (St. Louis, MO) unless otherwise noted. […] Some rodents are given a cotreatment with a subcutaneous (SC) injection of lipopolysaccharide (LPS, 500 μg/kg; Sigma-Aldrich, ref #0127:B8) diluted in 0.9% injectable saline while control group animals receive injections of all vehicles matching the experimental conditions. […] On day 2, either no injection for naïve rats, or saline or LPS is injected (1 mg/kg, SC).
Tissue Collection. […] Rats are euthanized 18 hours after LPS injection for sample collection. Hippocampi from mice and rats are rapidly dissected under RNAse-free conditions and placed in 1.5 mL Eppendorf tubes. When appropriate, samples are snap frozen in liquid nitrogen prior to storage at −80° C. until further analysis. Trunk blood is collected from mice into serum collection tubes, allowed to clot at room temperature for 1 hour, then centrifuged at 1,500 g for 10 minutes at 4° C.
(§1) Multiplex Assays. In mouse serum, protein levels of IL-1b, IL-6, IL-10 and TNF-alpha are measured using a V-Plex Meso Scale Discovery (MSD) Multiplex spot assay Mouse Neuroinflammation 1 panel (Meso Scale Diagnostics, Rockville, MD). All samples are run in duplicates or triplicates according to manufacturer instructions and analyzed with MSD Discovery Workbench software (Meso Scale Diagnostics).
An additional experimental group receiving an injection with lumateperone alone is included as an additional control. Protein concentration is measured using the Multiplex MSD assay V-Plex technology. Results are expressed in pg/mL, except for IL-6, which is measured in ng/mL.

[2] = test system: hippocampal gene expression (NanoString gene sets and genes); assay: NanoString nCounter hippocampal gene expression after co-injection of LPS and lumateperone; format: in vivo, mouse
Text: NanoString. The mouse neuropathology panel includes 770 genes associated with themes of neurotransmission, neuron-glia interaction, neuroplasticity, cell structure integrity, neuroinflammation and metabolism. A total of 13 housekeeping genes are used for expression normalization (Aars: NM_146217.4, Asb10: NM_080444.4, Ccdc127: NM_024201.3, Cnot10: NM_153585.5, Csnk2a2: NM_009974.3, Fam104a: NM_138598.5, Gusb: NM_010368.1, Lars: NM_134137.2, Mto1: NM_026658.2, Supt7l: NM_028150.1, Tada2b: NM_001170454.1:3224, Tbp: NM_013684.3:70, and Xpnpep1: NM_133216.3:1826, see FIG. 1-1). Hippocampal RNA is extracted using the Qiagen microkit (Qiagen) and is evaluated by the Agilent 2100 Bioanalyzer (Agilent Technologies, Santa Clara, CA) to assess RNA concentration, quality, and integrity. Sample preparation, hybridization, and detection (100 ng per sample, n=5-6 per group) are carried out according to NanoString manufacturer's instructions (NanoString Technologies, Seattle, WA). The normalized data are transformed to log 2 score to express the fold change. NanoString results (raw and normalized counts) are derived from RCC files using the nSolver software (version 2.6; NanoString Technologies). A complementary gene software analysis tool, ROSALIND® Advanced Analysis Software (NanoString Technologies), is also used, which provides comprehensive free cloud-based data analysis for nCounter data by directly analyzing raw RCC files generated from NanoString. Data are imported into ROSALIND® Advanced Analysis Software for normalization, calculation of fold-changes, P values, identification of enriched pathways, and heatmaps.
It is calculated similarly to a undirected global significance score, but it takes into account the sign of the t-statistic. Scores were calculated by nSolver software, using the control group as a reference.

[3] = test system: serum cytokines IL-1b, IL-6, TNF-alpha, IL-10; assay: Serum cytokine protein (Multiplex MSD) after acute restraint stress; format: in vivo, mouse; conditions: mice, 2 h restraint stress; Luma 3 mg/kg IP immediately before
Protocol: as §1
Restraint Stress Protocol.
Control mice receive vehicle treatment and are returned to their home cage before sample collection. Protein concentration is measured using the Multiplex MSD assay V-Plex technology, normalized to the control group. Results are expressed in pg/mL.

[4] = test system: patients with schizophrenia; assay: Randomized, double-blind, placebo-controlled phase 3 clinical trial in schizophrenia; format: in vivo, human
Protocol: A randomized, double-blind, placebo-controlled, phase 3 clinical trial was conducted with 450 patients with schizophrenia, aged 18 to 60 years, who were experiencing an acute exacerbation of psychosis. Patients were included if they were experiencing an acute exacerbation of psychosis, defined as a total score on the Brief Psychiatric Rating Scale of […] or higher, with a score of 4 or higher on 2 or more positive symptoms, and onset of the acute episode within 4 weeks of screening. Patients were required to have a score of 4 or higher, indicating moderate to severe disease severity, on the Clinical Global Impression-Severity of Illness (CGI-S) at screening and baseline. […]
The primary efficacy end point was mean change from baseline to day 28 in the Positive and Negative Syndrome Scale (PANSS) total score versus placebo. […] The PANSS subscale scores, social function, safety, and tolerability were also assessed. Primary and key secondary efficacy measures were assessed weekly. Safety was assessed by treatment-emergent adverse events (TEAEs), modified physical examinations, 12-lead electrocardiograms (ECGs), vital signs, and clinical laboratory tests (blood and urine samples for clinical laboratory analysis were collected from all subjects upon screening and on Days 1, 8, 28, and 33, following overnight fast).

[5] = LPS 500 μg/kg-challenged mice, hippocampus 2 h, label LPS = LPS alone, label Luma = LPS + Luma 3 mg/kg, vs control group
[6] = mice, hippocampus 2 h, Luma 3 mg/kg alone (no LPS), vs control group
[7] = LPS 500 μg/kg-challenged mice, label LPS = LPS alone, label Luma = LPS + Luma 3 mg/kg IP

CN1CCN2c3c(cccc31)[C@@H]1CN(CCCC(=O)c3ccc(F)cc3)CC[C@@H]12 [Luma, lumateperone]
Serum cytokine concentration IL-6 ([1]; mice, Luma 3 mg/kg IP alone (no LPS)): 0.09 ng/mL | Directed global significance score: DNA damage [2, 5]: 0.042 | Directed global significance score: Inflammatory signaling [2, 5]: −0.93 | Directed global significance score: Lipid metabolism [2, 5]: 0.89 | Directed global significance score: Oligodendrocyte function [2, 5]: 0.48 | Genes that promote inflammation (e.g., Osmr, Tnfrsf1a, Tnfrsf11b, Prl, Il1r1), cytokine-specific gene expression ([2]; ROSALIND analysis, LPS+Luma versus LPS alone, filter P<0.04999, mice hippocampus): significantly downregulates | Directed global significance score: Adaptive immune response [2, 6]: 0.344 | Directed global significance score: Angiogenesis [2, 6]: 0.616 | Directed global significance score: Apoptosis [2, 6]: −0.442 | Directed global significance score: Astrocyte function [2, 6]: −0.837 | Directed global significance score: Autophagy [2, 6]: −0.731 | Directed global significance score: Carbohydrate metabolism [2, 6]: −0.837 | Directed global significance score: Cell cycle [2, 6]: −0.75 | Directed global significance score: Cellular stress [2, 6]: −0.432 | Directed global significance score: Cytokine signaling [2, 6]: −0.543 | Directed global significance score: DNA damage [2, 6]: −0.614 | Directed global significance score: Epigenetic regulation [2, 6]: 0.729 | Directed global significance score: Growth factor signaling [2, 6]: 0.226 | Directed global significance score: Inflammatory signaling [2, 6]: −1.032 | Directed global significance score: Innate immune response [2, 6]: −0.611 | Directed global significance score: Insulin signaling [2, 6]: 0.858 | Directed global significance score: Lipid metabolism [2, 6]: −0.818 | Directed global significance score: Matrix remodeling [2, 6]: −0.4 | Directed global significance score: Microglia function [2, 6]: 0.466 | Directed global significance score: Notch [2, 6]: 0.834 | Directed global significance score: Oligodendrocyte function [2, 6]: −1.176 | Directed global significance score: Wnt [2, 6]: 0.9 | Serum cytokine concentration IL-1b [3]: 0.81 pg/mL | Symptoms of schizophrenia ([4]; patients with acute exacerbation of psychosis, 60 mg or 40 mg lumateperone tosylate once daily for 28 days vs placebo): effective for improving the symptoms of schizophrenia | Safety profile ([4]; patients with schizophrenia, 60 mg or 40 mg lumateperone tosylate once daily for 28 days): favorable safety profile

lipopolysaccharide [LPS, reference compound]
Serum cytokine concentration IL-1b [1, 7]: 6.27 pg/mL | Serum cytokine concentration IL-6 [1, 7]: 14.52 ng/mL | Serum cytokine concentration IL-10 [1, 7]: 980.4 pg/mL | Serum cytokine concentration TNF-alpha [1, 7]: 335.3 pg/mL | Directed global significance score: Adaptive immune response [2, 5]: 0.571 | Directed global significance score: Angiogenesis [2, 5]: −0.144 | Directed global significance score: Apoptosis [2, 5]: 0.915 | Directed global significance score: Astrocyte function [2, 5]: 1.391 | Directed global significance score: Autophagy [2, 5]: 0.588 | Directed global significance score: Carbohydrate metabolism [2, 5]: 0.507 | Directed global significance score: Cell cycle [2, 5]: −0.148 | Directed global significance score: Cellular stress [2, 5]: 0.499 | Directed global significance score: Cytokine signaling [2, 5]: 0.993 | Directed global significance score: DNA damage [2, 5]: 0.578 | Directed global significance score: Epigenetic regulation [2, 5]: 0.312 | Directed global significance score: Growth factor signaling [2, 5]: 0.76 | Directed global significance score: Inflammatory signaling [2, 5]: 1.086 | Directed global significance score: Innate immune response [2, 5]: 0.939 | Directed global significance score: Insulin signaling [2, 5]: 0.28 | Directed global significance score: Lipid metabolism [2, 5]: −0.192 | Directed global significance score: Matrix remodeling [2, 5]: −0.583 | Directed global significance score: Microglia function [2, 5]: 0.377 | Directed global significance score: Neurons and neurotransmission [2, 5]: −0.422 | Directed global significance score: Notch [2, 5]: 0.876 | Directed global significance score: Oligodendrocyte function [2, 5]: 0.181 | Directed global significance score: Wnt [2, 5]: −0.476
